As usually defined, the inhibition is the percentage by which the read-out fell short of the control.

One assay concerns the target T1, thromboxane synthetase (Rattus norvegicus, UniProt P49430).
T1 construct: The platelets were isolated by centrifuging the PRP for 10 minutes at 1060×g; endogenous in cells; host or cells: washed platelets from arterial blood of Okamoto-Aoki spontaneously hypertensive rats (Taconic Farms)
T1 sequence (P49430 1-533): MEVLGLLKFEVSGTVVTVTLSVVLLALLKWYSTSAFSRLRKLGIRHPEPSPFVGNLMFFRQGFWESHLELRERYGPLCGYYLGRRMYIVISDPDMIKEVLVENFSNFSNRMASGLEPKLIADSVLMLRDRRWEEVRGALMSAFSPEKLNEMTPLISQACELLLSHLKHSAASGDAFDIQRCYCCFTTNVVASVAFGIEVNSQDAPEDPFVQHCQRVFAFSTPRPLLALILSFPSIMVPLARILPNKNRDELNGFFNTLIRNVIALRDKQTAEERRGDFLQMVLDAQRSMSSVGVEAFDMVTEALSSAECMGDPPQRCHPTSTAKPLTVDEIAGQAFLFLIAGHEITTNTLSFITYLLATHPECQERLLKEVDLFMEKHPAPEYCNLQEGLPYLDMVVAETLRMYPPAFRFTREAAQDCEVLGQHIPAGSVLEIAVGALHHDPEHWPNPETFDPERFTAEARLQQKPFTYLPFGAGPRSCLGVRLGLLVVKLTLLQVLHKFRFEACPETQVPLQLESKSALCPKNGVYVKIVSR
The experiment in a line: inhibition of thromboxane (TX) formation in rat platelets, TXB2 determined by radio-immunoassay (RIA). Conditions: 10^-4 M; SHR washed platelets; 10 minutes at 37° C. Format: cell-based, Okamoto-Aoki spontaneously hypertensive rats (SHR). How it is done:
Under urethan anesthesia, […]. of arterial blood was collected in one ml. of 3.2% sodium citrate in a polystyrene tube from Okamoto-Aoki spontaneously hypertensive rats (SHR) (Taconic Farms, Germantown, NY) between 19 and 24 weeks in age. The blood was diluted with 3 ml. cold saline and centrifuged at room temperature for 15 minutes at 460×g. The platelet rich plasma (PRP) was separated. The platelets were isolated by centrifuging the PRP for 10 minutes at 1060×g and were washed in 4 ml. cold oxygenated Krebs phosphate buffer, pH 7.4. The chilled platelets recovered from centrifuging at 800×g for 10 minutes were resuspended in oxygenated Krebs phosphate buffer and diluted to contain 4.5-6.0×10^4 platelts/μl.
The inhibition of thromboxane (TX) formation was studied by determing the concentration of thromboxane B2 (TXB2), the stable hydrolysis product of TXA2. Assay samples, prepared on ice, contained 200 μl. platelet suspension, 50 μl. saline, and 50 μl. vehicle or drug under study (OKY-1581, UK-37248-01, 1-benzylimidazole, or indomethacin). The samples were incubated for 10 minutes at 37° C. in a metabolic shaker. The reaction was terminated by immersing the tubes in an ice bath and adding 50 μl. of 0.5M citric acid. The samples were centrifuged for 10 minutes in a refrigerated centrifuge and the supernatants thus obtained were decanted and stored at -20° C. The TXB2 content for each sample was determined by a direct radio-immunoassay (RIA) utilizing a TXB2 specific RIA kit purchased from New England Nuclear, Boston, MA and expressed as pg TXB2 formed minute^-1 sample^-1, from which the percent inhibition of TXB2 formation was calculated. The results of this test on representative compounds of this invention appear in Table I

Assay [1] concerns spontaneously hypertensive rats of the Okamoto strain. The experiment in a line: hypotensive activity (mean arterial blood pressure) in spontaneously hypertensive rats. The assay is classed as in vivo. Conditions: 100 mg/kg or less by gavage, two doses 24 h apart; measured 28 hours after initial dose; mean of 1-3 rats; starting MABP 160±1.5 mm. How it is done:
The novel compounds of the present invention are also active hypotensive agents and were tested for hypotensive activity by the method of P. S. Chan and D. Poorvin, Clinical and Experimental Hypertension, 1 (6), 817-830 (1979). Male, 16 week old, spontaneously hypertensive rats of the Okamoto strain, from Taconic Farms, Germantown, N.Y. having an average mean arterial blood pressure of 160±1.5 mm of mercury are used in the test. One to 3 rats are used per test compound. A rat is dosed by gavage with a test compound, suspended in 2% pre-boiled starch at a concentration of 50 mg/ml, at a dose of 100 mg/kg of body weight or less, with 0.9% sodium chloride loading at a dose 25 ml/kg of body weight. A second identical dose of the test compound, without sodium chloride loading is given 24 hours later. At 28 hours after the initial dose, the mean arterial blood pressure (MABP) is measured by the method of Chan and Poorvin vide supra. The procedure is repeated in a second and third rat when necessary. Based on the data obtained and using the three-stage "sequential probability ratio test" statistical method, the critieria for activity or retest are as follows:
If the blood pressure in the first rat is ≤116 mm mercury the compound is considered active. If the blood pressure is between […], a second rat is used. If the average blood pressure of the first and second rats is ≤122 mm the compound is considered active. If the average blood pressure is between 123 and 137 mm, a third rat is used. If the average blood pressure of the three rats is ≤128 mm the compound is considered active. The results of this test on representative compounds of the present invention appear in Table II below.

In turn, `O=C(NCCCn1ccnc1)c1ccco1` [Example 1, N-[3-(1H-Imidazol-1-yl)propyl]-2-furanecarboxamide] returned an inhibition at 100 µM on thromboxane synthetase of 97%. Still for that read-out and setting: then `O=C(NCCCn1ccnc1)c1sc2ccccc2c1Cl` [Example 2, 3-chloro-N--[3-(1H--imidazol-1-yl)propyl]benzo[b]thiophene-2-carboxamide], with 100%; and `O=C(NCCCn1ccnc1)c1sc2cc(F)ccc2c1Cl` [Example 3, 3-chloro-6-fluoro-N--[3-(1H--imidazol-1-yl)propyl]benzo[b]thiophene-2-carboxamide], with 96%. The same measure, in the same setting: under `Cc1ccc2c(Cl)c(C(=O)NCCCn3ccnc3)sc2c1` [Example 4, 3-chloro-N--[3-(1H--imidazol-1-yl)propyl]-6-methyl-benzo[b]thiophene-2-carboxamide] stands 96%. With `O=C(NCCCn1ccnc1)c1ccoc1` [Example 5, N-[3-(1H-Imidazol-1-yl)propyl]-3-furanecarboxamide], the inhibition at 100 µM against thromboxane synthetase was 78%. Moreover, in assay [1], the “MABP (mean arterial blood pressure)” value was 128 mm Hg.

For `O=C(NCCCn1ccnc1)c1ccc(Br)o1` [Example 6, 5-bromo-N--[3-(1H--imidazol-1-yl)propyl]-2-furanecarboxamide], 100 µM produced 82% inhibition on thromboxane synthetase. In turn, `O=C(NCCCn1ccnc1)c1cccs1` [Example 7, N--[3-(1H--imidazol-1-yl)propyl]-2-thiophenecarboxamide] showed an inhibition at 100 µM against thromboxane synthetase of 93%. Take `Cc1ccc(C(=O)NCCCn2ccnc2)s1` [Example 8, N--[3-(1H--imidazol-1-yl)propyl]-5-methyl-2-thiophenecarboxamide]: at 100 µM the inhibition against thromboxane synthetase was 96%. Still for that read-out and setting: under `O=C(NCCCn1ccnc1)c1cc(Br)c(Br)s1` [Example 9, 4,5-dibromo-N--[3-(1H--imidazol-1-yl)propyl]-2-thiophenecarboxamide] stands 100%; under `O=C(NCCCn1ccnc1)c1cc2ccccc2o1` [Example 10, N--[3-(1H--imidazol-1-yl)propyl]-2-benzofuranecarboxamide], 97%; under `O=C(NCCCn1ccnc1)c1cc2cc(Cl)ccc2s1` [Example 11, 5-chloro-N--[3-(1H--imidazol-1-yl)propyl]benzo[b]thiophene-2-carboxamide], 100%. `O=C(C=Cc1ccco1)NCCCn1ccnc1` [Example 14, N--[3-(1H--imidazol-1-yl)propyl]-3-(2-furanyl)-2-propenamide]: the inhibition at 100 µM on thromboxane synthetase is 78%. `O=C(C=Cc1cccs1)NCCCn1ccnc1` [Example 15, N--[3-(1H--imidazol-1-yl)propyl]-3-(2-thienyl)-2-propenamide] registered an inhibition at 100 µM on thromboxane synthetase of 100%.

At thromboxane synthetase, `O=C(NCCCn1ccnc1)c1ccc([N+](=O)[O-])o1` [Example 16] came in with an inhibition at 100 µM of 64%. In addition, in assay [1], the “MABP (mean arterial blood pressure)” value came to 114 mm Hg. Consider `O=C(CCCc1cccs1)NCCCn1ccnc1` [Example 17, N--[3-(1H--imidazol-1-yl)propyl]-2-thiophenebutyramide], for which the “MABP (mean arterial blood pressure)” value in assay [1] was determined as 121 mm Hg.

For `O=C(NCCCn1ccnc1)C(=O)c1cccs1` [Example 18, N--[3-(1H--imidazol-1-yl)propyl]-α-oxo-thiophene acetamide], the inhibition at 100 µM against thromboxane synthetase is 73%. In assay [1], the “MABP (mean arterial blood pressure)” value is 125 mm Hg. For `O=C(NCCCn1ccnc1)c1ccc(Cl)s1` [Example 19, 5-chloro-N--[3-(1H--imidazol-1-yl)propyl]thiophene-2-carboxamide] the same measures were 95% and 125 mm Hg.

For `O=C(NCCn1ccnc1)c1sc2ccccc2c1Cl` [Example 20, 3-Chloro-N-[2-(1H-imidazol-1-yl)ethyl]benzo[b]thiophene-2-carboxamide], at thromboxane synthetase, 100 µM produced 70% inhibition. The “MABP (mean arterial blood pressure)” value in assay [1] is given as 117 mm Hg. Turning to `CCc1nccn1CCCNC(=O)c1sc2ccccc2c1Cl` [Example 22, 3-chloro-N--[3-(2-ethyl-1H--imidazol-1-yl)propyl]benzo[b]thiophene-2-carboxamide], at thromboxane synthetase, the inhibition at 100 µM amounted to 55%. Same read-out and setting: then `Cc1cn(CCCNC(=O)c2sc3ccccc3c2Cl)cn1` [Example 24, 3-chloro-N--[3-(4-methyl-1H--imidazol-1-yl)propyl]benzo[b]thiophene-2-carboxamide], with 98%; and `Cc1cn(CCCNC(=O)c2cccs2)cn1` [Example 25, N--[3-(4-methyl-1H--imidazol-1-yl)propyl]thiophene-2-carboxamide], with 51%. The same measure, in the same setting: under `O=C(NCCCCn1ccnc1)c1ccco1` [Example 28, N-[4-(1H-Imidazol-1-yl)butyl]-2-furanecarboxamide] stands 87%. Still for that read-out and setting: then `O=C(NCCCCn1ccnc1)c1sc2ccccc2c1Cl` [Example 29, 3-chloro-N--[4-(1H--imidazol-1-yl)butyl]benzo[b]thiophene-2-carboxamide], with 91%.

Take `O=C(NCCCCn1ccnc1)c1ccc(Cl)s1` [Example 30, 5-chloro-N--[4-(1H--imidazol-1-yl)butyl]thiophene-2-carboxamide]: in assay [1], the “MABP (mean arterial blood pressure)” value amounted to 118 mm Hg.

The compound `O=C(NCCCCn1ccnc1)c1cccs1` [Example 31, N--[4-(1H--imidazol-1-yl)butyl]thiophene-2-carboxamide] returned an inhibition at 100 µM against thromboxane synthetase of 95%. In addition, in assay [1], the “MABP (mean arterial blood pressure)” value is recorded as 114 mm Hg.

The values are drawn from patent publication US4489089A, “Substituted N-[ω-(1H-imidazol-1-yl)alkyl]-amides” (American Cyanamid Company, priority 1984, dated 1984).
